In patent US7825256B2, “Inducible nitric oxide synthase dimerization inhibitors” (Kalypsys, Inc., priority 2004, dated 2010):

Legend:
hiNOS = biological target: T1, hiNOS (Homo sapiens, UniProt P35228); assay: DAN assay, hiNOS expressed in transiently transfected HEK293 cells; format: cell-based; details: HEK293 cells transiently transfected with hiNOS
T1 construct: expressed in transfected cells; host or cells: HEK293
Method in brief: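 Human iNOS, nNOS or eNOS transiently expressed in HEK293 cells, with nNOS and eNOS needing added cofactors for activity. NO production is read as nitrite by fluorometry: 2,3-diaminonaphthalene forms fluorescent […], detecting 10 nM to 10 μM nitrite.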

hnNOS = biological target: T2, hnNOS (Homo sapiens, UniProt P29475); assay: DAN assay, hnNOS expressed in transiently transfected HEK293 cells; format: cell-based; details: HEK293 cells transiently transfected with hnNOS
T2 construct: expressed in transfected cells; host or cells: HEK293
Description: The source of nitric oxide synthase (NOS) enzyme can be generated in several ways including induction of endogenous iNOS using cytokines and/or lipopolysaccharide (LPS) in various cell types known in the art. Alternatively, the gene encoding the enzyme can be cloned and the enzyme can be generated in cells via heterologous expression from a transient or stable expression plasmid with suitable features for protein expression as are known in the art. Enzymatic activity (nitric oxide production) is calcium independent for iNOS, while the constitutive NOS isoforms, nNOS and eNOS, become active with the addition of various cofactors added to cellular media or extract as are well known in the art. Enzymes specified in Table 1 were expressed in HEK293 cells transiently transfected with the indicated NOS isoform.
A major metabolic pathway for nitric oxide is to nitrate and nitrite, which are stable metabolites within tissue culture, tissue, plasma, and urine (S Moncada, A Higgs, N Eng J Med 329, 2002 (1993)).
The level of nitrate or nitrite in the specimen can be quantified by any method known in the art which provides adequate sensitivity and reproducibility. A variety of protocols have also been described for detecting and quantifying nitrite and nitrate levels in biological fluids by ion chromatography (e.g., S A Everett et al., J. Chromatogr. 706, 437 (1995); J M Monaghan et al., J. Chromatogr. 770, 143 (1997)), high-performance liquid chromatography (e.g., M Kelm et al., Cardiovasc. Res. 41, 765 (1999)), and capillary electrophoresis (M A Friedberg et al., J. Chromatogr. 781, 491 (1997)). […] Using 2,3-diaminonaphthalene (“DAN”), researchers have developed a rapid, quantitative fluorometric assay that can detect from 10 nM to 10 μM nitrite and is compatible with a multi-well microplate format. […]
A specimen can be processed prior to determination of nitrate or nitrite as required by the quantification method, or in order to improve the results, or for the convenience of the investigator. […]

iNOS = biological target: T3, iNOS (Rattus norvegicus, UniProt Q06518); assay: LPS challenge (LPS induced iNOS in vivo); details: for ED50: ED50 class
T3 construct: from tissue; host or cells: whole animal: male Lewis rats after LPS injection; blood samples collected
Description: Inhibition of induction of iNOS can be quantified via the LPS challenge. Inflammation, edema, and the onset of sepsis can be observed following an injection of lipopolysaccharide (LPS), a substance produced by Gram-negative bacteria. […] (Iuvone T et al., Evidence that inducible nitric oxide synthase is involved in LPS-mediated plasma leakage in rat skin through the activation of nuclear factor-κB, Br J Pharm 1998:123 1325-1330.) As described above, the level of nitric oxide in the specimen can be quantified by correlation with plasma nitrate or nitrite levels via chemiluminescence, fluorescence, spectrophotometric assays, or by any method known in the art which provides adequate sensitivity and reproducibility, including those described above.
Male Lewis rats weighing 150-250 g are used in the studies. Rats may be fasted for up to 16 hours prior to the administration of LPS. Free access to water is maintained. Test compounds are administered with LPS or alone. Compounds are dissolved in the vehicle of 0.5% methycele/0.025% Tween 20 or 20% encapsin for oral administration. For the intravenous dosing, compounds are dissolved in saline or 0.5-3% DMSO/20% encapsin. The dosing volumes are 1-2 ml for oral and 0.3-1 ml for intravenous administration.
LPS is injected intravenously (under anesthesia) or intraperitoneally in sterile saline at a dose between 0.1-10 mg/kg in a volume not excess to 1 ml. The needle is 26-30 gauge. […] In routine screening experiments, rats are sacrificed 1.5-6 hr after LPS injection and a terminal bleeding is performed under anesthesia to collect 1-3 ml blood samples and then animals are then euthanized by CO2.

T2 sequence (P29475 whole entry): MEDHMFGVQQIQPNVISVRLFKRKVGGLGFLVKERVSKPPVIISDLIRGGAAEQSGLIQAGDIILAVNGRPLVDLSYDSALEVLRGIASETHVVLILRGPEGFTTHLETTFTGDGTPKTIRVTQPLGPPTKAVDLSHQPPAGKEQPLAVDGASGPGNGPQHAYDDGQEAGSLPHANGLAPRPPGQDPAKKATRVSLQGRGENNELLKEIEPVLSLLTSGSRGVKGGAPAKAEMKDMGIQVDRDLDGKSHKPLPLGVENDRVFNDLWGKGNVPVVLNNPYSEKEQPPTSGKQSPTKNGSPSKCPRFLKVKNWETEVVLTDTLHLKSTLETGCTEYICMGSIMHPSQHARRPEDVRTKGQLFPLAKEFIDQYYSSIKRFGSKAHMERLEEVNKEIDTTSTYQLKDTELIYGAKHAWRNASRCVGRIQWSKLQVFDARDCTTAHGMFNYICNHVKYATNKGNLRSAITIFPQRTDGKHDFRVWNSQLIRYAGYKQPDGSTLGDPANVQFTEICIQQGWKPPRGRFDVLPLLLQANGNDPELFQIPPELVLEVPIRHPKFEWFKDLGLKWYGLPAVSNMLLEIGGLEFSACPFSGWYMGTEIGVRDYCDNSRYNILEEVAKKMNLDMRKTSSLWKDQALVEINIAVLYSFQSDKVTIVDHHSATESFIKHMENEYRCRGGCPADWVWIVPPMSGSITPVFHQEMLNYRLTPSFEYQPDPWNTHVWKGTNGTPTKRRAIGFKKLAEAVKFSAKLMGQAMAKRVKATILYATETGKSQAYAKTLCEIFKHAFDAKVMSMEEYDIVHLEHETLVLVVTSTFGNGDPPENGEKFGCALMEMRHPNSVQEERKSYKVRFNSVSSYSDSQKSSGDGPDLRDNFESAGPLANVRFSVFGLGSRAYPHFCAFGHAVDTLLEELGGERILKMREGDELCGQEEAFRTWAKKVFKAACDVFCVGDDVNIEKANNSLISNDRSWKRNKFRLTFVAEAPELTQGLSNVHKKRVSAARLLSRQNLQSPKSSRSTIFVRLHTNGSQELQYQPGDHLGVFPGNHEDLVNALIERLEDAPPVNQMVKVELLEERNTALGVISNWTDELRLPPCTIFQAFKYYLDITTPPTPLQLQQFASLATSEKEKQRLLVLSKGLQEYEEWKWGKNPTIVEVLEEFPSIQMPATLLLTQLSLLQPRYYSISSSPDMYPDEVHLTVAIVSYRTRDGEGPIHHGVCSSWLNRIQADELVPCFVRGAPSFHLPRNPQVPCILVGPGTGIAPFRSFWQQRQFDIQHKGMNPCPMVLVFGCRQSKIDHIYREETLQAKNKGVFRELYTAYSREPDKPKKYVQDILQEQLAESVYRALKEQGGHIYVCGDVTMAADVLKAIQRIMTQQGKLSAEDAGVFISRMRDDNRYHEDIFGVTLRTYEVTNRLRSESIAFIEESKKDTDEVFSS

Compound | EC50 (hiNOS) [nM] | EC50 (hnNOS) [nM] | inhibition at 16 mg/kg (iNOS; at 16 mg/kg) [%] | ED50 (iNOS) [mg/kg]
Cc1cc(C2CCCN2C(=O)CNCc2ccc3c(c2)OCO3)nc(-n2ccnc2)n1 (stereo not drawn) [Example 5] | < 1000 | > 1000 | 64 | –
Cc1cc(C2CCCN2C(=O)NCCc2ccc3c(c2)OCO3)nc(-n2ccnc2)n1 (stereo not drawn) [Example 4, 2-(2-Imidazol-1-yl-6-methyl-pyrimidin-4-yl)-pyrrolidine-1-carboxylic acid (2-benzo[1,3]dioxol-5-yl-ethyl)-amide] | < 1000 | 700 | – | < 10
CN(CCCNCc1ccc2c(c1)OCO2)c1nc(-n2ccnc2)ns1 [Example 2, N′-Benzo[1,3]dioxol-5-ylmethyl-N-(3-imidazol-1-yl-[1,2,4]thiadiazol-5-yl)-N-methyl-propane-1,3-diamine] | < 1000 | > 1000 | – | < 10
